pEC50: −log10 of the molar value. Values joined by “and” are separate entries in the source; they are usually repeats but may differ in a detail not shown here. Equal entries are not always repeated. Where two headings read alike, the source gives them in different places.
Assays:
SARS-CoV-2 [1] = assay: microbe, parasite or virus in culture; type: cell-based; settings: for pEC50: Severe acute respiratory syndrome coronavirus 2, 60 h, read-out: half maximal effective concentration (EC50), 50% CPE inhibition
SARS-CoV-2 [2] = type: cell-based
SARS-CoV-2 [3] = type: cell-based; remark: listed apart in the source
Calu-3 = assay: MTT assay in Calu-3; type: cell-based, human; settings: Calu-3, 10 µM and 32 µM
SARS-CoV-2 [4] = type: cell-based; remark: listed apart in the source
SARS-CoV-2 [5] = test system: SARS-CoV-2
HEK293T cells = type: cell-based, human
SARS-CoV-2 [6] = type: cell-based; remark: listed apart in the source
HEK293T = assay: MTT assay in HEK293T; type: cell-based, human; settings: 10 µM and 32 µM
[7] = test system: intracellular cholesterol traffic; type: cell-based, African green monkeys
SARS-CoV-2 [8] = settings: in vivo
SARS-CoV-2 [9] = type: cell-based; remark: listed apart in the source
SARS-CoV-2 [10] = type: cell-based; remark: listed apart in the source
SARS-CoV-2 B.1 = type: cell-based
Caco-2 = assay: MTT assay in Caco-2; type: cell-based, human; settings: Caco-2, 10 µM and 32 µM
Pharmacokinetics in mice = type: in vivo, CD1 mice
Protocol: In vivo pharmacokinetics assessment of LNB167 was performed at the Center of Innovation and Preclinical Studies (CIEnP, Brazil) under contract. LNB167 was tested in adult male CD1 mice (n = 5) bred under Specific Pathogen Free conditions at doses of 60 mg/kg (p.o.) or 6 mg/kg (I.V.). Results were reported according to ARRIVE (Animal Research Reporting In Vivo Experiments) [[22–24]]. The pharmacokinetics parameters were determined using the software Phoenix® WinNonlin® (version 7.0).

[11] = Potential toxicity of LNB167 in mice; type: in vivo, FVB male mice; settings: oral gavage
Protocol: Adult FVB male mice bred and maintained at the Animal Facility of LOM at LNBio/CNPEM were weighed and divided into three groups (n = 5): vehicle (5% ethanol, 45% PEG400, 5% TWEEN®80, 45% saline), LNB167 60 mg/kg, and LNB167 300 mg/kg. Mice received one dose daily for 6 days by oral gavage. Animals were weighed and monitored daily for signs of potential compound toxicity including loss of movement, ruffled fur, ear position, eye shape, and death.

HuH7.5 = assay: MTT assay in HuH7.5; type: cell-based, human; settings: HuH7.5, 10 µM and 32 µM

CN1CCN(CCC(=O)O[C@H]2CC[C@@]3(C)C(CCC4C3CC[C@]3(C)C(=O)CCC43)C2)CC1 (some centres unmarked) [LNB171]
half maximal effective concentration (EC50), 50% CPE inhibition (SARS-CoV-2 [1]): mid micromolar range | effect on viral load assessed by RT-qPCR (SARS-CoV-2 [2]): no effect | effect on viral load assessed by plaque assay (SARS-CoV-2 [3]): no effect | toxicity, MTT assay (Vero CCL81 cells): not cytotoxic

C[C@]12CC[C@H](OCCS(=O)(=O)N3CCOCC3)CC1CCC1C2CC[C@]2(C)C(=O)CCC12 (some centres unmarked) [FFNBio41]
pEC50 (SARS-CoV-2 [1]): 5.30 | effect on viral load assessed by plaque assay (SARS-CoV-2 [3]): no effect | toxicity, MTT assay (Vero CCL81 cells): not cytotoxic

C[C@]12CC[C@H](OC[C@H](O)CN3CCOCC3)CC1CCC1C2CC[C@]2(C)C(=O)CCC12 (some centres unmarked) [LNB168]
half maximal effective concentration (EC50), 50% CPE inhibition (SARS-CoV-2 [1]): mid micromolar range

CCN(CC)CCCC(C)Nc1ccnc2cc(Cl)ccc12 (centres unmarked) [Chloroquine, reference compound]
pEC50 (SARS-CoV-2 [1]): 5.23

C[C@]12CC[C@H](O)CC1CCC1C2CC[C@]2(C)C(=O)[C@H](Br)CC12 (some centres unmarked) [16a-bromoepiandrosterone, reference compound]
cytoprotective activity against SARS-CoV-2 (SARS-CoV-2 [1]): did not display cytoprotective activity

CN1CCN(C[C@H](O)CO[C@H]2CC[C@@]3(C)C(CCC4C3CC[C@]3(C)C(=O)CCC43)C2)CC1 (some centres unmarked) [LNB167]
pEC50 (SARS-CoV-2 [1]): 6.05 | fold reduction in viral RNA levels (RT-qPCR) vs vehicle-treated control (SARS-CoV-2 [2]): ~100 fold | toxicity, MTT assay (Calu-3): not toxic | fold reduction in viral load (RT-qPCR, viral RNA) (SARS-CoV-2 [4]): ≤ 1000 fold | virucidal activity against SARS-CoV-2 (SARS-CoV-2 [5]): neither LNB167 nor LNB169 were virucidal | up-regulated pathways (RNASeq), SARS-CoV-2-infected cells (HEK293T cells): upregulation of multiple pathways involving metabolism and biosynthesis of both membrane lipids and cholesterol | up-regulated pathways (RNASeq), non-infected cells (HEK293T cells): upregulation of membrane lipids and cholesterol metabolic and biosynthetic pathways | effect on SARS-CoV-2 viral load (SARS-CoV-2 [6]): no effect | toxicity, MTT assay (HEK293T): not toxic | effect on viral load assessed by plaque assay (SARS-CoV-2 [3]): potent inhibition of SARS-CoV-2 replication | fold reduction in infectious virus (plaque assay) vs vehicle-treated control (SARS-CoV-2 [3]): 1000 fold | cholesterol distribution, filipin III staining [7]: formation of puncta that were identical to those observed in U18666A-treated cells | viral load recovered from infected mouse lungs (plaque assay or RT-qPCR) (SARS-CoV-2 [8]): did not reduce the viral load | histological analysis of lung sections (SARS-CoV-2 [8]; mouse): alterations in tissue architecture that were more pronounced in the context of SARS-CoV-2 infection | protection from disease development induced by SARS-CoV-2 (SARS-CoV-2 [8]; mouse): did not protect from disease development | average weight loss (SARS-CoV-2 [8]; mouse, 120 mg/kg): 15% | effect on SARS-CoV-2 viral load (SARS-CoV-2 [9]): no effect | toxicity, MTT assay (Vero CCL81 cells; 10 µM and 32 µM, Vero CCL81): not cytotoxic | effect on levels of viral RNA (RT-qPCR) (SARS-CoV-2 [10]): did not reduce levels of viral RNA | fold reduction in infectious viral progeny (plaque assay), time of addition (SARS-CoV-2 B.1): up to 100 fold | fold reduction in viral load (RT-qPCR), time of addition (SARS-CoV-2 B.1): approximately 10 fold | time of addition after infection giving maximum antiviral activity (SARS-CoV-2 B.1): ≤ 8 h | toxicity, MTT assay (Caco-2): not toxic | bioavailability (Pharmacokinetics in mice; male, CD1, mouse, plasma, oral, 60 mg/kg p.o. (6 mg/kg I.V.)): 66.3% | half-life (Pharmacokinetics in mice; male, CD1, mouse, plasma, po, single dose of 60 mg/kg given orally): 2.67 h | volume of distribution (Pharmacokinetics in mice; single dose of 60 mg/kg given orally): 63.17 L/kg | maximum plasma concentration (Pharmacokinetics in mice; single dose of 60 mg/kg given orally, 60 mg/kg): 498.69 ng/ml and 1.1 µM | signs of toxicity ([11]; 60 mg/Kg once a day for 6 days): No signs of toxicity | signs of toxicity ([11]; 300 mg/Kg once a day for 6 days): moderate weight loss and ruffled fur | toxicity, MTT assay (HuH7.5): not toxic

C[C@]12CC[C@H](OC[C@@H](O)CN3CCOCC3)CC1CCC1C2CC[C@]2(C)C(=O)CCC12 (some centres unmarked) [LNB166]
half maximal effective concentration (EC50), 50% CPE inhibition (SARS-CoV-2 [1]): mid micromolar range

CN1CCN(C[C@@H](O)CO[C@H]2CC[C@@]3(C)C(CCC4C3CC[C@]3(C)C(=O)CCC43)C2)CC1 (some centres unmarked) [LNB169]
pEC50 (SARS-CoV-2 [1]): 5.42 | fold reduction in viral RNA levels (RT-qPCR) vs vehicle-treated control (SARS-CoV-2 [2]): ~100 fold | toxicity, MTT assay (Calu-3): not toxic | fold reduction in viral load (RT-qPCR, viral RNA) (SARS-CoV-2 [4]): approximately 100 fold | virucidal activity against SARS-CoV-2 (SARS-CoV-2 [5]): neither LNB167 nor LNB169 were virucidal | effect on SARS-CoV-2 viral load (SARS-CoV-2 [6]): no effect | toxicity, MTT assay (HEK293T): not toxic | effect on viral load assessed by plaque assay (SARS-CoV-2 [3]): potent inhibition of SARS-CoV-2 replication | fold reduction in infectious virus (plaque assay) vs vehicle-treated control (SARS-CoV-2 [3]): 1000 fold | effect on SARS-CoV-2 viral load (SARS-CoV-2 [9]): no effect | toxicity, MTT assay (Vero CCL81 cells; 10 µM and 32 µM, Vero CCL81): not cytotoxic | effect on levels of viral RNA (RT-qPCR) (SARS-CoV-2 [10]): did not reduce levels of viral RNA | fold reduction in infectious viral progeny (plaque assay), time of addition (SARS-CoV-2 B.1): up to 100 fold | fold reduction in viral load (RT-qPCR), time of addition (SARS-CoV-2 B.1): approximately 10 fold | time of addition after infection giving maximum antiviral activity (SARS-CoV-2 B.1): ≤ 8 h | toxicity, MTT assay (Caco-2): not toxic | toxicity, MTT assay (HuH7.5): not toxic

CN1CCN(CC(=O)O[C@H]2CC[C@@]3(C)C(CCC4C3CC[C@]3(C)C(=O)CCC43)C2)CC1 (some centres unmarked) [FFNBio42]
pEC50 (SARS-CoV-2 [1]): 5.33 | fold reduction in viral RNA levels (RT-qPCR) vs vehicle-treated control (SARS-CoV-2 [2]): 10 fold | fold reduction in infectious virus (plaque assay) vs vehicle-treated control (SARS-CoV-2 [3]): 10 fold | toxicity, MTT assay (Vero CCL81 cells): not cytotoxic

C[C@]12CC[C@H](O)C[C@@H]1CC[C@@H]1[C@@H]2CC[C@]2(C)C(=O)CC[C@@H]12 [Epiandrosterone, reference compound]
cytoprotective activity against SARS-CoV-2 (SARS-CoV-2 [1]): did not display cytoprotective activity

C[C@]12CC[C@H](OC(=O)CN3CCOCC3)CC1CCC1C2CC[C@]2(C)C(=O)CCC12 (some centres unmarked) [LNB149]
half maximal effective concentration (EC50), 50% CPE inhibition (SARS-CoV-2 [1]): mid micromolar range

CCN(CC)CCO[C@H]1CC[C@@]2(C)C(=CC[C@@H]3[C@@H]2CC[C@]2(C)C(=O)CC[C@@H]32)C1.Cl [U18666A, reference compound]
cholesterol distribution, filipin III staining [7]: formation of puncta inside cells

— PMC9235892 (Virulence, 2022)
